Source: US8288364B2, “Botanically derived composition and a process thereof” (Indus Biotech Private Limited, priority 2008, dated 2012)

What was measured:
[1] = system: 3T3-L1 cells; assay: Deoxy-D-Glucose, 2-(1-14C) uptake in 3T3-L1 cells (insulin-like action); assay type: cell-based
Procedure: This example studies the time and dose dependant uptake of Deoxy-D-Glucose, 2-(1-^14C) uptake in 3T3-L1 cells treated with the test compound. 3T3-L1 cells were cultured (DMEM+FBS) in a 24 well plate and were treated with a 5 μg/ml and a 50 μg/ml dose of the test compound for 10 or 30 min. Cells treated with 100 nM insulin was used as a positive control. Radioactivity (cpm) was measured with TopCount (Packard).

[2] = Double-blind, placebo-controlled clinical study: body composition (body fat) by bioelectric impedance and hydrostatic weighing; assay type: in vivo, human; details: volunteers, 500 mg supplementation, 8 weeks, resistance training 4 times/week
Procedure: (§1) Subsequently, a double-blind, placebo-controlled study in 49 pre-trained volunteers was conducted to assess the safety and efficacy of the test compound. This 2 month study was conducted with supplementation of 500 mg of the test compound and the volunteers were on resistance training 4 times/week. During this study the effect of the test compound on body composition (fat content) and strength were evaluated.
Body density was analyzed by bioelectric impedance and hydrostatic weighing. Based on these parameters fat free mass was calculated. From the FIG. 5 it is concluded that during the study period of 8 weeks, the test product reduced the body fat by 12%. This is a significant reduction.

[3] = Body composition (anabolic/androgenic activity) in castrated immature rats, 4 weeks of treatment; assay type: in vivo, Wistar rats
Description: Immature male Wistar rats weighing about 55 gm (±5 gm) were selected for the study. These rats were anesthetized by anesthetic ether and castrated. After 4 weeks of treatment, animals were sacrificed and the seminal vesicles, the ventral prostate, and the muscle levator ani carefully dissected and weighed. Body weight of the animals was registered at the beginning and at the end of the experiment. Increase in weight of seminal vesicles and ventral prostate indicates androgenic activity, whereas increase in weight of levator ani muscles was considered to indicate anabolic activity.

[4] = system: serum testosterone; assay: Serum testosterone by radioimmunoassay in castrated immature rats after four weeks of treatment; assay type: in vivo, Wistar rats; details: daily treatment, 35 mg/kg p.o., RIA
Procedure: In addition, to rule out any possibility of androgenic activity in the increase in body weight and muscle mass, the serum testosterone levels were measured.
Immature male Wistar rats weighing about 55 gm (±5gm) were selected for the study. These rats were anesthetized by anesthetic ether and castrated. After four weeks of treatment, the blood was withdrawn from the rats by retro orbital puncture method and analyzed for serum testosterone, which was measured with the help of radioimmunoassay (RIA) kit.

[5] = Double-blind, placebo-controlled clinical study: strength (isotonic bench and leg press); assay type: in vivo, human; details: volunteers, 500 mg, 2 month study, weight lifted
Procedure: as §1
Since this product was used to increase muscle mass, the effect of the test compound on the strength of the volunteers was evaluated. This was done by conducting isotonic repetitions of bench and leg press exercises. An increase in strength was determined based on an increase in weight lifted during these two exercises.

[6] = Levator ani muscle mass in alloxan-diabetic animals; assay type: in vivo, Wistar rats; details: alloxan-diabetic animals on treatment, FIG. 8
Description: A subsequent study was done to evaluate the impact of the increase in weight on the muscle content of the animals.
The levitor ani muscles of these animals were checked for the drugs effect on muscle mass.

[7] = system: Diabetes Induced with Alloxan; assay: Blood sugar levels in early stages of diabetes induced with alloxan; assay type: in vivo, Wistar rats; details: alloxan-diabetic rats; for Blood sugar level, 0 day: day 0; for Blood sugar level, 0 day / Blood sugar level, 15 day / Blood sugar level, 30 day: doses: test compound 60 mg/kg, fenugreek seed powder 2 g/kg, crude alcohol extract 1 g/kg, pioglitazone 5 mg/kg; for Change in BSL (%): day 0 to day 30, numbers are printed as DECREASE, doses as in the row (60 mg/kg, 2 g/kg, 1 g/kg, 5 mg/kg); for Blood sugar level, 15 day: day 15 of treatment; for Blood sugar level, 30 day: day 30 of treatment
Procedure: (§2) Male Wistar rats were injected with alloxan monohydrate (160 mg/kg i.p.) to induce diabetes. After 48 hours of injection blood glucose levels were determined using glucose estimation kits. Animals with blood glucose levels above 300 mg/dl were selected and divided into four groups of 6 rats in each group.
Group 1: Non-Diabetic Control
Group 2: Diabetes Control
Group 3: Test Compound (60 mg/kg)
Group 4: Pioglitazone (Standard Drug) (5 mg/kg)
(§3) The animals were given respective drug solutions in stipulated dose, for 30 days. On the 0th, 15th and 30th day of treatment, the blood sugar levels and body weights were analyzed.
Serum was obtained by centrifuging the blood obtained by retero-orbital blood withdrawal at 7000 rpm at 4° C. for 15 min. The serum obtained was collected for Blood sugar level determinations. The below table provides data on blood glucose levels of various groups.

[8] = Body weight in early stages of diabetes induced with alloxan; assay type: in vivo, Wistar rats; details: alloxan-diabetic rats, test compound 60 mg/kg, pioglitazone 5 mg/kg; for Body weight, 0 day: day 0; for % Change in Body weight: day 0 to day 30, numbers are printed as INCREASE; for Body weight, 15 day: day 15; for Body weight, 30 day: day 30
Procedure: as §2, §3
There was a significant decrease in body weight in diabetic group as compared to non diabetic group. In the test compound treated group the body weight on 0 day was 185.16 & 240.83 on 30 day. […] There was a 29% increase in weight in the animals treated with the test compound that was an excellent result when compared to the 9% decrease in body weight of the untreated diabetic animals. The below table provides the percentage change in body weight of groups treated with respective treatments.

| Compound | Blood sugar level, 0 day [7] [mg/dL] | Change in BSL (%) [7] | Blood sugar level, 15 day [7] [mg/dL] | Blood sugar level, 30 day [7] [mg/dL] | Body weight, 0 day [8] [gm] | % Change in Body weight [8] | Body weight, 15 day [8] [gm] | Body weight, 30 day [8] [gm] | also measured |
| --- | --- | --- | --- | --- | --- | --- | --- | --- | --- |
| Insulin [reference compound] |  |  |  |  |  |  |  |  | stimulation of glucose uptake ([1]; 100 nM insulin, 10 min): 1.74 fold |
| OCC1O[C@H](OCC2O[C@@H](O[C@@H]3C(CO[C@H]4OC(CO)[C@H](O)C(O)C4O)O[C@@H](O)C(O)C3O)C(O)C(O)[C@@H]2O)C(O)C(O)[C@H]1O (some centres unmarked) [test compound] | 416.5 ± 14.42 | 55% | 294.5 ± 12.22 | 187 ± 9.33 | 185.16 | 29% | 215.83 ± 6.05 | 240.83 | glucose uptake ([1]; dose of 5 μg/ml, 10 or 30 min): enhanced glucose uptake; reduction of body fat [2]: 12%; weight of the levator ani muscles (anabolic activity) ([3]; 4 weeks of treatment): significant increase; weights of organs of the male reproductive system (prostate, seminal vesicle and penis); androgenic activity ([3]; 4 weeks, 10 and 35 mg/kg): did not increase; change in body weight ([3]; four-week treatment, 10 mg/kg p.o): did not cause any change; body weight compared with control group ([3]; four-week treatment, 35 mg/kg p.o): significant rise; total serum testosterone levels [4]: no significant increase; increase in strength compared to placebo, bench press [5]: 100%; increase in strength compared to placebo, leg press [5]: 80%; muscle mass (levitor ani muscles) [6]: significant increase; Change in BSL (%) ([7]; listed as Test Compound): 55% DECREASE; Body weight, 0 day ([8]; listed as Test Compound): 185.16 ± 6.53 gm; % Change in Body weight ([8]; listed as Test Compound): 29% INCREASE; Body weight, 30 day ([8]; listed as Test Compound): 240.83 ± 6.42 gm |
| CCc1ccc(CCOc2ccc(CC3SC(=O)NC3=O)cc2)nc1 (centres unmarked) [Pioglitazone, reference compound] | 438.66 ± 6.37 | 35.8% DECREASE | 376.33 ± 7.29 | 281 ± 5.92 | 165 ± 5.41 | 25% INCREASE | 198.5 ± 6.45 | 207.83 ± 4.49 |  |
| C[C@]12CC[C@H]3[C@@H](CCC4=CC(=O)CC[C@@]43C)[C@@H]1CC[C@@H]2O [testosterone, reference compound] |  |  |  |  |  |  |  |  | body weight compared with control group ([3]; four weeks, 10 mg s.c biweekly): significant rise |
